# Test results published in US5639729A, “Tripeptides useful in immune and CNS therapy” (Immunobiology Research Institute, Inc., priority 1993, dated 1997).
# Legend:
# [1] = tested on: insulin-induced ACTH secretion; test: Effect of peptide on insulin-induced ACTH secretion (insulin challenge); type: in vivo, Sprague-Dawley rats; details: insulin 0.5 IU/kg intraperitoneally, 30 minutes, rats pretreated with saline by oral gavage or s.c. injection; from 16.8±0.8 pg/ml
# Procedure: As mentioned above, the administration of insulin can be used as a provocative challenge test to determine how an organism responds to stress and how the response can be manipulated. It was shown in FIG. 1 that, in rats, administration of insulin causes an increase in plasma concentrations of ACTH.
# Adult male Sprague-Dawley rats were used in these experiments. After an overnight fast, the peptide or saline was administered by oral gavage or by subcutaneous injection to the experimental subjects. Doses of the peptide ranged from 0.1 to 10 mg/kg by the oral route and 0.03 to 3.0 mg/kg by the subcutaneous route. […] all animals were treated with insulin (0.5 IU/kg) and were sacrificed by decapitation 30 minutes later. As above, trunk blood was collected in polypropylene tubes containing 400 μl of 10% EDTA at 4° C. Plasma was separated by centrifugation and stored at -80° C. until being used for ACTH determinations, ACTH concentrations were determined by RIA as described by Nicholson et al, cited above, using antiserum [IgG Corporation] and ^125 I-labelled ACTH [ICN Corporation].
# [2] = tested on: ACTH secretion; test: Actions of insulin on ACTH secretion; type: in vivo, Sprague-Dawley rats; details: 30 minutes, fasted male rats
# Procedure: To determine whether a drug can modify stress responses, the stress response itself must be characterized. To accomplish this goal, adult male Sprague-Dawley rats [Charles River, Kingston, N.Y.] were treated with increasing doses of insulin [Humulin, Eli Lilly Co.] ranging from 0.05 to 5 IU/kg or saline intraperitoneally after an overnight fast. Thirty minutes after administering insulin, the animals were sacrificed by decapitation and trunk blood was collected into polypropylene tubes containing 400 μl of 10% EDTA at 4° C. The plasma was separated by centrifugation and stored at -80° C. until being used for ACTH determinations. Plasma concentrations of ACTH were determined by radioimmunoassay using antiserum [IgG Corporation, Nashville, Tenn.] and ^125 I-labelled ACTH [ICN Corporation, Costa Mesa, Calif.] as described by Nicholson et al, Clin. Chem., 30:259-265 (1984).
substance,measurement,setting,value
"insulin: insulin [Humulin, Eli Lilly Co.], used as provocative challenge to raise plasma ACTH in rats",plasma ACTH concentrations,[1],approximately 200 pg/ml
same,plasma ACTH levels,[2]; insulin 0.05 IU/kg intraperitoneally,not elevated
same,plasma ACTH concentrations,[2]; insulin 0.1 IU/kg intraperitoneally,significantly greater than in vehicle treated controls
same,ACTH responses,[2]; insulin doses higher than 0.1 IU/kg up to 5 IU/kg intraperitoneally,commensuratively greater ACTH responses
